From patent US4104372A, “1-N-(α-hydroxy-ω-aminoalkanoyl) derivatives of 3'-deoxykanamycin A and the production thereof” (Zaidan Hojin Biseibutsu Kagaku Kenkyu Kai, priority 1975, dated 1978)
≈ marks a conversion by molar mass, not a printed value.

Key:
[1] = system: drug-resistant bacteria capable of producing the 3'-phosphotransferase; settings: 3'-phosphotransferase producers; cited from earlier work
[2] = system: various kanamycin-resistant bacteria and Pseudomonas aeruginosa (for example, Pseudomonas aeruginosa GN 315) capable of producing the 6'-acetyltransferase; settings: 6'-acetyltransferase producers; cited from earlier work
[3] = system: Pseudomonas aeruginosa No. 12; test: Minimum inhibitory concentration, agar dilution-streak method; type: cell-based; settings: P. aeruginosa No. 12, nutrient agar, 37° C, 18 hours
Procedure: (§1) The minimum inhibitory concentrations (mcg/ml) of the new compounds 1-N-((S)-γ-amino-α-hydroxybutyryl)-3'-deoxykanamycin A (abbreviated as S-AHB-DKA); 1-N-((SR)-β-amino-α-hydroxypropionyl)-3'-deoxykanamycin A (abbreviated as SR-AHP-DKA); 1-N-((S)-δ-amino-α-hydroxyvaleryl)-3'-deoxykanamycin A (abbreviated as S-AHV-DKA); and 1-N-((S)-γ-amino-α-hydroxybutyryl)-6'-N-methyl-3'-deoxykanamycin A (abbreviated as S-AHB-MDKA) against various organisms were determined according to agar dilution-streak method (nutrient agar) at 37° C, the estimation being made after 18 hours incubation. For the comparison purpose, the minimum inhibitory concentrations (mcg/ml) of the parent antibiotic 3'-deoxykanamycin A, as well as 1-N-((S)-γ-amino-α-hydroxybutyryl)kanamycin A (abbreviated as AHB-KMA) which is known from U.S. Pat. No. 3,781,268 were also determined in the same manner as stated above.

[4] = system: Escherichia coli K-12 ML 1629; test: as above; type: cell-based; settings: K12ML1629, E. coli K-12 ML 1629, nutrient agar, 37° C, 18 hours
Procedure: as §1

[5] = system: Escherichia coli K-12 LA 290 R55; test: as above; type: cell-based; settings: K12LA290R55, 18 h, read-out: Minimum Inhibitory Concentration
Procedure: as §1

Escherichia coli K-12 = test: as above; type: cell-based; settings: K12, E. coli K-12, nutrient agar, 37° C, 18 hours
Procedure: as §1

[6] = system: Pseudomonas aeruginosa GN315; test: as above; type: cell-based; settings: P. aeruginosa GN315, nutrient agar, 37° C, 18 hours
Procedure: as §1

[7] = system: Pseudomonas aeruginosa A3; test: as above; type: cell-based; settings: P. aeruginosa A3, nutrient agar, 37° C, 18 hours
Procedure: as §1

[8] = system: Escherichia coli K-12 ML 1410; test: as above; type: cell-based; settings: K12ML1410, E. coli K-12 ML 1410, nutrient agar, 37° C, 18 hours
Procedure: as §1

[9] = system: Escherichia coli K-12 W677; test: as above; type: cell-based; settings: K12W677, E. coli K-12 W677, nutrient agar, 37° C, 18 hours
Procedure: as §1

[10] = system: Escherichia coli K-12 ML 1630; test: as above; type: cell-based; settings: K12ML1630, E. coli K-12 ML 1630, nutrient agar, 37° C, 18 hours
Procedure: as §1

[11] = system: Staphylococcus aureus FDA 209P; test: as above; type: cell-based; settings: FDA209P, S. aureus FDA 209P, nutrient agar, 37° C, 18 hours
Procedure: as §1

[12] = system: Escherichia coli K-12 JR66/W677; test: as above; type: cell-based; settings: K12JR66/W677, 18 h, read-out: Minimum Inhibitory Concentration
Procedure: as §1

[13] = system: kanamycin-resistant bacteria and ribostamycin-resistant bacteria; settings: cited from earlier work

## NC[C@@H]1CC[C@@H](N)[C@@H](O[C@H]2[C@H](O)[C@@H](O[C@H]3O[C@H](CO)[C@@H](O)[C@H](N)[C@H]3O)[C@H](N)C[C@@H]2N)O1 [3',4'-dideoxykanamycin B]
[1]
  effectiveness against drug-resistant bacteria: practically effective against the drug-resistant bacteria

## NC[C@@H]1CC[C@@H](N)[C@@H](O[C@H]2[C@H](O[C@@H]3O[C@H](CO)[C@@H](O)[C@H]3O)[C@@H](O)[C@H](N)C[C@@H]2N)O1 [3',4'-dideoxyribostamycin]
[1]
  effectiveness against drug-resistant bacteria: practically effective against the drug-resistant bacteria

## CNC[C@@H]1CC[C@@H](N)[C@@H](O[C@H]2[C@H](O)[C@@H](O[C@H]3O[C@H](CO)[C@@H](O)[C@H](N)[C@H]3O)[C@H](N)C[C@@H]2N)O1 [6'-N-methyl-3',4'-dideoxykanamycin B]
[2]
  activity against resistant bacteria: active against various kanamycin-resistant bacteria and Pseudomonas aeruginosa

## CNC[C@H]1O[C@H](O[C@H]2[C@H](O)[C@@H](O[C@H]3O[C@H](CO)[C@@H](O)[C@H](N)[C@H]3O)[C@H](N)C[C@@H]2N)[C@H](N)C[C@@H]1O [6'-N-methyl-3'-deoxykanamycin B]
[2]
  activity against resistant bacteria: active against various kanamycin-resistant bacteria and Pseudomonas aeruginosa

## NCC[C@H](O)C(=O)N[C@@H]1C[C@H](N)[C@@H](O[C@H]2O[C@H](CN)[C@@H](O)[C@H](O)[C@H]2O)[C@H](O)[C@H]1O[C@H]1O[C@H](CO)[C@@H](O)[C@H](N)[C@H]1O [AHB-KMA, 1-N-((S)-γ-amino-α-hydroxybutyryl)kanamycin A, reference compound]
[3]
  MIC: 6.25 mg/L (≈ 10.7 µM)
[4]
  MIC: 0.78 mg/L (≈ 1.33 µM)
[5]
  MIC: 0.78 mg/L (≈ 1.33 µM)
Escherichia coli K-12
  MIC: 0.78 mg/L (≈ 1.33 µM)
[6]
  MIC: 100 mg/L (≈ 171 µM)
[7]
  MIC: 3.12 mg/L (≈ 5.33 µM)
[8]
  MIC: 0.78 mg/L (≈ 1.33 µM)
[9]
  MIC: 0.78 mg/L (≈ 1.33 µM)
[10]
  MIC: 1.56 mg/L (≈ 2.66 µM)
[11]
  MIC: 0.78 mg/L (≈ 1.33 µM)
[12]
  MIC: 3.12 mg/L (≈ 5.33 µM)

## NC[C@H]1O[C@H](O[C@H]2[C@H](O)[C@@H](O[C@H]3O[C@H](CO)[C@@H](O)[C@H](N)[C@H]3O)[C@H](N)C[C@@H]2N)[C@H](O)C[C@@H]1O [DKA, 3'-deoxykanamycin A]
[3]
  MIC: 12.5 mg/L (≈ 26.7 µM)
[4]
  MIC: 3.12 mg/L (≈ 6.66 µM)
[5]
  MIC: 3.12 mg/L (≈ 6.66 µM)
Escherichia coli K-12
  MIC: 3.12 mg/L (≈ 6.66 µM)
[6]
  MIC: > 100 mg/L
[7]
  MIC: 3.12 mg/L (≈ 6.66 µM)
[8]
  MIC: 3.12 mg/L (≈ 6.66 µM)
[9]
  MIC: 3.12 mg/L (≈ 6.66 µM)
[10]
  MIC: 3.12 mg/L (≈ 6.66 µM)
[11]
  MIC: 1.56 mg/L (≈ 3.33 µM)
[12]
  MIC: > 100 mg/L
[1]
  effectiveness against drug-resistant bacteria: practically effective against the drug-resistant bacteria

## NCC[C@H](O)C(=O)N[C@@H]1C[C@H](N)[C@@H](O[C@H]2O[C@H](CN)[C@@H](O)C[C@H]2O)[C@H](O)[C@H]1O[C@H]1O[C@H](CO)[C@@H](O)[C@H](N)[C@H]1O [S-AHB-DKA, 1-N-((S)-γ-amino-α-hydroxybutyryl)-3'-deoxykanamycin A]
[3]
  MIC: 3.12 mg/L (≈ 5.48 µM)
[4]
  MIC: 0.39 mg/L (≈ 0.685 µM)
[5]
  MIC: 0.78 mg/L (≈ 1.37 µM)
Escherichia coli K-12
  MIC: 0.39 mg/L (≈ 0.685 µM)
[6]
  MIC: 100 mg/L (≈ 176 µM)
[7]
  MIC: 3.12 mg/L (≈ 5.48 µM)
[8]
  MIC: 0.39 mg/L (≈ 0.685 µM)
[9]
  MIC: < 0.2 mg/L
[10]
  MIC: 0.78 mg/L (≈ 1.37 µM)
[11]
  MIC: 0.39 mg/L (≈ 0.685 µM)
[12]
  MIC: 0.78 mg/L (≈ 1.37 µM)

## CNC[C@H]1O[C@H](O[C@H]2[C@H](O)[C@@H](O[C@H]3O[C@H](CO)[C@@H](O)[C@H](N)[C@H]3O)[C@H](NC(=O)[C@@H](O)CCN)C[C@@H]2N)[C@H](O)C[C@@H]1O [S-AHB-MDKA, 1-N-((S)-γ-amino-α-hydroxybutyryl)-6'-N-methyl-3'-deoxykanamycin A]
[3]
  MIC: 3.12 mg/L (≈ 5.35 µM)
[4]
  MIC: 1.56 mg/L (≈ 2.67 µM)
[5]
  MIC: 1.56 mg/L (≈ 2.67 µM)
Escherichia coli K-12
  MIC: 0.39 mg/L (≈ 0.668 µM)
[6]
  MIC: 6.25 mg/L (≈ 10.7 µM)
[7]
  MIC: 3.12 mg/L (≈ 5.35 µM)
[8]
  MIC: 0.78 mg/L (≈ 1.34 µM)
[9]
  MIC: 3.12 mg/L (≈ 5.35 µM)
[10]
  MIC: 0.78 mg/L (≈ 1.34 µM)
[11]
  MIC: 0.78 mg/L (≈ 1.34 µM)
[12]
  MIC: 1.56 mg/L (≈ 2.67 µM)

## NCCC[C@H](O)C(=O)N[C@@H]1C[C@H](N)[C@@H](O[C@H]2O[C@H](CN)[C@@H](O)C[C@H]2O)[C@H](O)[C@H]1O[C@H]1O[C@H](CO)[C@@H](O)[C@H](N)[C@H]1O [S-AHV-DKA, 1-N-((S)-δ-amino-α-hydroxyvaleryl)-3'-deoxykanamycin A]
[3]
  MIC: 6.25 mg/L (≈ 10.7 µM)
[4]
  MIC: 1.56 mg/L (≈ 2.67 µM)
[5]
  MIC: 3.12 mg/L (≈ 5.35 µM)
Escherichia coli K-12
  MIC: 0.78 mg/L (≈ 1.34 µM)
[6]
  MIC: > 100 mg/L
[7]
  MIC: 3.12 mg/L (≈ 5.35 µM)
[8]
  MIC: 3.12 mg/L (≈ 5.35 µM)
[9]
  MIC: 3.12 mg/L (≈ 5.35 µM)
[10]
  MIC: 1.56 mg/L (≈ 2.67 µM)
[11]
  MIC: 0.78 mg/L (≈ 1.34 µM)
[12]
  MIC: 3.12 mg/L (≈ 5.35 µM)

## NCC(O)C(=O)N[C@@H]1C[C@H](N)[C@@H](O[C@H]2O[C@H](CN)[C@@H](O)C[C@H]2O)[C@H](O)[C@H]1O[C@H]1O[C@H](CO)[C@@H](O)[C@H](N)[C@H]1O (stereo partly drawn) [SR-AHP-DKA, 1-N-((SR)-β-amino-α-hydroxypropionyl)-3'-deoxykanamycin A]
[3]
  MIC: 6.25 mg/L (≈ 11.2 µM)
[4]
  MIC: 0.78 mg/L (≈ 1.4 µM)
[5]
  MIC: 1.56 mg/L (≈ 2.81 µM)
Escherichia coli K-12
  MIC: 0.39 mg/L (≈ 0.702 µM)
[6]
  MIC: > 100 mg/L
[7]
  MIC: 3.12 mg/L (≈ 5.62 µM)
[8]
  MIC: 0.78 mg/L (≈ 1.4 µM)
[9]
  MIC: 0.78 mg/L (≈ 1.4 µM)
[10]
  MIC: 0.78 mg/L (≈ 1.4 µM)
[11]
  MIC: 0.78 mg/L (≈ 1.4 µM)
[12]
  MIC: 1.56 mg/L (≈ 2.81 µM)

## NCC[C@H](O)C(=O)N[C@@H]1C[C@H](N)[C@@H](O[C@H]2O[C@H](CN)[C@@H](O)[C@H](O)[C@H]2N)[C@H](O[C@@H]2O[C@H](CO)[C@@H](O)[C@H]2O)[C@H]1O [butirosin B, 1-N-((S)-α-hydroxy-γ-amino-n-butyryl)-5-O-β-D-ribofuranosylneamine]
[13]
  activity against resistant bacteria: active against some kanamycin-resistant bacteria and some ribostamycin-resistant bacteria
